What follows are compounds tested against T1, full-length human PKCι (Homo sapiens, UniProt P41743) (assay: PKCι IC50 IMAP assay, full-length PKCι at 150 μM ATP). Details: read-out: IC50 in IMAP assay against full length PKCi at 150 μM ATP.
T1 construct: Recombinant, full-length human PKCι expressed in Sf21 insect cells is also commercially available; purchased; host or cells: Sf21 insect cells
T1 sequence (P41743 1-596): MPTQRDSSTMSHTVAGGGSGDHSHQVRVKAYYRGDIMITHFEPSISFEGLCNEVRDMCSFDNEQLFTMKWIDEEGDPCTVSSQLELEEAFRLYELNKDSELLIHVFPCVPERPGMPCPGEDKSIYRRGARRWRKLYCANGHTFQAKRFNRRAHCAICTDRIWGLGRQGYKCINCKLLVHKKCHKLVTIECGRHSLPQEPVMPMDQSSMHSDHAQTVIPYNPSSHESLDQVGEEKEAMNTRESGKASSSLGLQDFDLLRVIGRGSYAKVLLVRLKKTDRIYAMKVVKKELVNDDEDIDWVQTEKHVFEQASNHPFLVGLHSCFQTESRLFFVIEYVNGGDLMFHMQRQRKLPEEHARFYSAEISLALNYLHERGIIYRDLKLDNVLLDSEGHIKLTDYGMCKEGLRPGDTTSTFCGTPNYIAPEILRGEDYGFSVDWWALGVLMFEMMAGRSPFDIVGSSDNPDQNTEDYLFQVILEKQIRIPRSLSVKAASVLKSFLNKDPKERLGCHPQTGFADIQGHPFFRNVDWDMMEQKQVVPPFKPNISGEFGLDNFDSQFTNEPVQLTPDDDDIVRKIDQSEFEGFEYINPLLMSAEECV
Assay type: biochemical
Procedure, shortened: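 Full-length human PKCι from Sf21 cells, typically 15 pM, with 100 nM 5FAM-PKCε pseudosubstrate peptide and 150 μM ATP (5× apparent KM), 60 min at room temperature, 4% DMSO. IMAP fluorescence polarisation read-out; inhibition normalised to no-compound and no-enzyme controls, IC50 from curve fit.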
For `N#Cc1ccnc(Nc2cc(-c3nc(N[C@@H]4CCNC4)c4ccncc4n3)ccn2)c1` [Example 321, 2-{4-[4-((R)-Pyrrolidin-3-ylamino)-pyrido[3,4-d]pyrimidin-2-yl]-pyridin-2-ylamino}-isonicotinonitrile], the IC50 was under 100 nM.
`C[C@H]1CN(c2nc(-c3ccnc(Nc4ccc(F)cc4)c3)nc3cncc(C4CC4)c23)CCN1` [Example 693, {4-[5-Cyclopropyl-4-((S)-3-methyl-piperazin-1-yl)-pyrido[3,4-d]pyrimidin-2-yl]-pyridin-2-yl}-(4-fluoro-phenyl)-amine] was tested, and the IC50 was under 100 nM.
Work on `COc1cncc2nc(-c3ccnc(Nc4cccc(OCC(N)=O)c4)c3)nc(N[C@@H]3CCNC3)c12` [Example 323, 2-(3-{4-[5-Methoxy-4-((R)-pyrrolidin-3-ylamino)-pyrido[3,4-d]pyrimidin-2-yl]-pyridin-2-ylamino}-phenoxy)-acetamide] yielded an IC50 of under 100 nM.
With `N[C@H]1CCCN(c2nc(-c3ccnc(Nc4ncc(F)cc4F)c3)nc3cncc(C4CC4)c23)C1` [Example 2198, {4-[4-(3-Amino-piperidin-1-yl)-5-cyclopropyl-pyrido[3,4-d]pyrimidin-2-yl]-pyridin-2-yl}-(3,5-difluoro-pyridin-2-yl)-amine] the IC50 was under 100 nM.
`FC(F)(F)C1CN(c2nc(-c3ccnc(NC4CCCC4)c3)nc3cncc(C4CC4)c23)CCN1` (stereo not shown) [Example 284, Cyclopentyl-{4-[5-cyclopropyl-4-(3-trifluoromethyl-piperazin-1-yl)-pyrido[3,4-d]pyrimidin-2-yl]-pyridin-2-yl}-amine] showed an IC50 of 100 to 1000 nM.
`N[C@H]1CCC[C@H]1C(=O)Nc1cc(-c2nc(N3CCNCC3)c3c(C4CC4)cncc3n2)ccn1` [Example 561, (1R,2S)-2-Amino-cyclopentane-carboxylic acid [4-(5-cyclopropyl-4-piperazin-1-yl-pyrido[3,4-d]pyrimidin-2-yl)-pyridin-2-yl]-amide] was tested, and the IC50 was under 100 nM.
With `FC(F)(F)c1cc2c(-c3nc(N4CCNCC4)c4c(C5CC5)cncc4n3)ccnc2[nH]1` [Example 1212] the IC50 was under 100 nM.
In the case of `COc1cncc2nc(-c3ccnc(Nc4ccc(C#N)cn4)c3)nc(N[C@@H]3CCNC3)c12` [Example 344, 6-{4-[5-Methoxy-4-((R)-pyrrolidin-3-ylamino)-pyrido[3,4-d]pyrimidin-2-yl]-pyridin-2-ylamino}-nicotinonitrile], the IC50 is reported as under 100 nM.
For `COc1cc(Nc2cc(-c3nc(N4CCNCC4)c4c(C5CC5)cncc4n3)ccn2)ccc1C1CC1` [Example 637, (4-Cyclopropyl-3-methoxy-phenyl)-[4-(5-cyclopropyl-4-piperazin-1-yl-pyrido[3,4-d]pyrimidin-2-yl)-pyridin-2-yl]-amine], the IC50 was under 100 nM.
With `CN1CCN(c2cccc(Nc3cc(-c4nc(N5C[C@H](O)[C@@H](O)C5)c5c(C6CC6)cncc5n4)ccn3)c2)CC1` [Example 793, (3S,4S)-1-(5-Cyclopropyl-2-{2-[3-(4-methyl-piperazin-1-yl)-phenylamino]-pyridin-4-yl}-pyrido[3,4-d]pyrimidin-4-yl)-pyrrolidine-3,4-diol] the IC50 was 100 to 1000 nM.
Work on `Nc1cc(-c2nc(N3CCNCC3)c3c(C4CC4)cncc3n2)ccn1` [Example 582, 4-(5-Cyclopropyl-4-piperazin-1-yl-pyrido[3,4-d]pyrimidin-2-yl)-pyridin-2-ylamine] yielded an IC50 of under 100 nM.
For `N#Cc1ccnc2c1ccn2-c1cc(-c2nc(N[C@@H]3CCNC3)c3ccncc3n2)ccn1` [Example 328, 1-{4-[4-((R)-Pyrrolidin-3-ylamino)-pyrido[3,4-d]pyrimidin-2-yl]-pyridin-2-yl}-1H-pyrrolo[2,3-b]pyridine-4-carbonitrile], the IC50 was 1000 to 10000 nM.
`Cc1ccnc(Nc2cc(-c3nc(N4CCNCC4)c4c(C5CC5)cncc4n3)ccn2)c1` [Example 267, [4-(5-Cyclopropyl-4-piperazin-1-yl-pyrido[3,4-d]pyrimidin-2-yl)-pyridin-2-yl]-(4-methyl-pyridin-2-yl)-amine] gave an IC50 of under 100 nM.
With `N[C@H](CNc1nc(-c2ccncc2)nc2c(-c3ccccc3O)nccc12)Cc1ccccc1` [Example 105, 2-(4-{[(2S)-2-amino-3-phenylpropyl]-amino}-2-(pyridin-4-yl)-pyrido[3,4-d]-pyrimidin-8-yl)phenol] the IC50 was under 100 nM.
Compound `Fc1ccccc1Nc1cc(-c2nc(N3CCNCC3)c3c(Cl)cncc3n2)ccn1` [Example 247, [4-(5-Chloro-4-piperazin-1-yl-pyrido[3,4-d]pyrimidin-2-yl)-pyridin-2-yl]-(2-fluoro-phenyl)-amine] has an IC50 of 100 to 1000 nM.
In the case of `c1ccc2c(c1)OCCC2Nc1cc(-c2nc(N3CCNCC3)c3c(C4CC4)cncc3n2)ccn1` (stereo not shown) [Example 712, Chroman-4-yl-[4-(5-cyclopropyl-4-piperazin-1-yl-pyrido[3,4-d]pyrimidin-2-yl)-pyridin-2-yl]-amine], the IC50 is reported as under 100 nM.
Work on `N#Cc1cccc(Nc2cc(-c3nc(N4CCNCC4)c4c(C5CC5)cncc4n3)ccn2)n1` [Example 746, 6-[4-(5-Cyclopropyl-4-piperazin-1-yl-pyrido[3,4-d]pyrimidin-2-yl)-pyridin-2-ylamino]-pyridine-2-carbonitrile] yielded an IC50 of under 100 nM.
In the case of `COc1cncc2nc(-c3ccnc(NC(=O)Cc4cccc(Cl)c4)c3)nc(N3CCN(C)CC3)c12` [Example 398, 2-(3-Chloro-phenyl)-N-{4-[5-methoxy-4-(4-methyl-piperazin-1-yl)-pyrido[3,4-d]pyrimidin-2-yl]-pyridin-2-yl}-acetamide], the IC50 is reported as 100 to 1000 nM.
`Fc1ccc(Nc2cc(-c3nc(N4CCNCC4)c4c(C5CC5)cncc4n3)c(F)cn2)cc1` [Example 765, [4-(5-Cyclopropyl-4-piperazin-1-yl-pyrido[3,4-d]pyrimidin-2-yl)-5-fluoro-pyridin-2-yl]-(4-fluoro-phenyl)-amine] was tested, and the IC50 was under 100 nM.
Compound `c1ccc(C[C@H]2CN(c3nc(-c4ccncc4)nc4cnccc34)CCN2)cc1` [Example 16, (3S)-3-benzyl-1-[2-(pyridin-4-yl)pyrido[3,4-d]-pyrimidin-4-yl]-piperazine] has an IC50 of 100 to 1000 nM.
With `COc1cncc2nc(N3CCOCC3)nc(N3CCN[C@@H](COc4ccccc4)C3)c12` [Example 1006, 5-Methoxy-2-morpholin-4-yl-4-((R)-3-phenoxymethyl-piperazin-1-yl)-pyrido[3,4-d]pyrimidine] the IC50 was 100 to 1000 nM.
With `COc1cncc2nc(-c3ccnc(Nc4ccccc4)c3)nc(N3CCC[C@@H](O)C3)c12` [Example 428, (R)-1-[5-Methoxy-2-(2-phenylamino-pyridin-4-yl)-pyrido[3,4-d]pyrimidin-4-yl]-piperidin-3-ol] the IC50 was 1000 to 10000 nM.
In the case of `N#CC1CCN(c2nc(-c3ccnc4[nH]c(C(F)(F)F)cc34)nc3cncc(C4CC4)c23)CC1` [Example 1241, 1-[5-Cyclopropyl-2-(2-trifluoromethyl-1H-pyrrolo[2,3-b]pyridin-4-yl)-pyrido[3,4-d]pyrimidin-4-yl]-piperidine-4-carbonitrile], the IC50 is reported as 100 to 1000 nM.
With `c1cc(-c2nc(N[C@@H]3CCOC3)c3ccncc3n2)ccn1` [Example 42, N-[(3R)-oxolan-3-yl]-2-(pyridin-4-yl)-pyrido[3,4-d]-pyrimidin-4-amine] the IC50 was 10000 to 40000 nM.
`COc1cncc2nc(-c3ccnc(Nc4cc(C#N)ccn4)c3)nc(N3CCOCC3)c12` [Example 388, 2-[4-(5-Methoxy-4-morpholin-4-yl-pyrido[3,4-d]pyrimidin-2-yl)-pyridin-2-ylamino]-isonicotinonitrile] was tested, and the IC50 was 10000 to 40000 nM.
`N[C@H](CNc1nc(-c2ccncc2)nc2c(-c3cccc(Cl)c3)nccc12)Cc1ccccc1` [Example 102, N-[(2S)-2-amino-3-phenylpropyl]-8-(3-chloro-phenyl)-2-(pyridin-4-yl)-pyrido[3,4-d]-pyrimidin-4-amine] was tested, and the IC50 was 100 to 1000 nM.
For `CN(c1nc(-c2ccnc(Nc3nc(F)c(F)cc3F)c2)nc2cncc(C3CCC3)c12)C1CCNCC1` [Example 2163, {5-Cyclobutyl-2-[2-(3,5,6-trifluoro-pyridin-2-ylamino)-pyridin-4-yl]-pyrido[3,4-d]pyrimidin-4-yl}-methyl-piperidin-4-yl-amine], the IC50 was under 100 nM.
In the case of `Cc1ccc(Nc2cc(-c3nc(N4CCNCC4)c4c(C5CC5)cncc4n3)ccn2)c(C)c1` [Example 573, [4-(5-Cyclopropyl-4-piperazin-1-yl-pyrido[3,4-d]pyrimidin-2-yl)-pyridin-2-yl]-(2,4-dimethyl-phenyl)-amine], the IC50 is reported as under 100 nM.
For `O=C(Nc1cc(-c2nc(N[C@@H]3CCNC3)c3ccncc3n2)ccn1)c1cnccn1` [Example 307, Pyrazine-2-carboxylic acid {4-[4-((R)-pyrrolidin-3-ylamino)-pyrido[3,4-d]pyrimidin-2-yl]-pyridin-2-yl}-amide], the IC50 was 100 to 1000 nM.
`CN1CCN(c2cccc(Nc3cc(-c4nc(N5CCCCCC5)c5c(C6CC6)cncc5n4)ccn3)c2)CC1` [Example 804, [4-(4-Azepan-1-yl-5-cyclopropyl-pyrido[3,4-d]pyrimidin-2-yl)-pyridin-2-yl]-[3-(4-methyl-piperazin-1-yl)-phenyl]-amine] gave an IC50 of 100 to 1000 nM.
In the case of `C[C@@H](Nc1cc(-c2nc(N3CCNCC3)c3c(C4CCC4)cncc3n2)ccn1)c1ccccc1F` [Example 2161, [4-(5-Cyclobutyl-4-piperazin-1-yl-pyrido[3,4-d]pyrimidin-2-yl)-pyridin-2-yl]-[(R)-1-(2-fluoro-phenyl)-ethyl]-amine], the IC50 is reported as under 100 nM.

Reference: patent US9914730B2, “Azaquinazoline inhibitors of Atypical protein Kinase C” (Ignyta, Inc., priority 2012, dated 2018)
